Results reported in patent US11911361B2, “Stable cannabinoid formulations” (priority 2014, dated 2024).

What was measured:
[1] = system: paclitaxel-induced mechanical sensitivity; test: Paclitaxel induced neuropathic pain study (Von Frey mechanical sensitivity); assay type: in vivo, mice
[2] = Pharmacokinetic food-effect study, single 20 mg/kg dose, healthy subjects (Example 17); conditions: 7-OH-cannabidiol; for ln(AUC0-inf) Geometric Mean / ln(AUC0-t) Geometric Mean / ln(Cmax) Geometric Mean: least squares geometric mean; for AUC0 / AUC0-0.25 / AUC0-0.5 / AUC0-0.75 / AUC0-1 / AUC0-1.5 / AUC0-2 / AUC0-2.5 / AUC0-3 / AUC0-4 / AUC0-6 / AUC0-8 / AUC0-12 / AUC0-16 / AUC0-24 / AUC0-36 / AUC0-48 / AUC0-72 / AUC0-96 / AUC0-120: single 20 mg/kg cannabidiol oral, mean ± SD; for AUC(0-inf) / AUC(0-t) / AUCextrap / Clast / Cmax / Tlast / t1/2 / λz / Tmax: single 20 mg/kg oral dose of cannabidiol solution; for AUC(0-inf) / AUC(0-t) / AUCextrap / Clast / Cmax / Tlast / t1/2 / λz: mean; for Tmax: median (min, max)
Description: An open label, randomized, single-dose, two-period, two-way crossover food-effect study was conducted on healthy subjects. […] Twenty-four (24) subjects were enrolled in the study and each were subjected to the fasted and fed treatment arms in separate periods followed by a 7-day wash-out period. For pharmacokinetic analysis, nominal time and default lambda-z selections were used. All below quantifiable limit values were set to zero and all subjects were included in the analysis.
Data from 13 subjects from the fasted treatment and 24 subject from the fed treatment were included in the pharmacokinetic and statistical analyses.

[3] = 20 mg/kg cannabidiol oral, Fasted
[4] = 20 mg/kg cannabidiol oral, geometric mean (fed)/geometric mean (fasted)

CCCCCc1cc(O)c2c(c1)OC(C)(C)[C@@H]1CCC(C)=C[C@@H]21 [THC, reference compound]
minimal effective dose ([1]; IP): 2.5 mg/kg | dose equi-effective to […] CBD ([1]; dose equivalence analysis): 0.7 mg/kg | effect on paclitaxel-induced mechanical sensitivity (in words) ([1]; pretreatment 15 minutes prior to each paclitaxel injection, IP): significantly attenuated

C=C(C)[C@@H]1CCC(CO)=C[C@H]1c1c(O)cc(CCCCC)cc1O [Formulation 7-OH-cannabidiol]
ln(AUC0-inf) Geometric Mean [2, 3]: 657.5873 | ln(AUC0-t) Geometric Mean [2, 3]: 630.3322 | ln(Cmax) Geometric Mean [2, 3]: 34.8933 | ln(AUC0-inf) Geometric Mean ([2]; 20 mg/kg cannabidiol oral, Fed): 4701.4345 | ln(AUC0-t) Geometric Mean ([2]; 20 mg/kg cannabidiol oral, Fed): 4610.3024 | ln(Cmax) Geometric Mean ([2]; 20 mg/kg cannabidiol oral, Fed): 442.6751 | ln(AUC0-inf) Ratio (%) (Fed/Fasted) [2, 4]: 714.95% | ln(AUC0-t) Ratio (%) (Fed/Fasted) [2, 4]: 731.41% | ln(Cmax) Ratio (%) (Fed/Fasted) [2, 4]: 1268.65% | AUC0 ([2]; fasted): 0.114 ± 0.410 ng·h/mL | AUC0-0.25 ([2]; fasted): 0.101 ± 0.363 ng·h/mL | AUC0-0.5 ([2]; fasted): 0.217 ± 0.361 ng·h/mL | AUC0-0.75 ([2]; fasted): 0.954 ± 0.843 ng·h/mL | AUC0-1 ([2]; fasted): 2.29 ± 2.13 ng·h/mL | AUC0-1.5 ([2]; fasted): 3.91 ± 3.90 ng·h/mL | AUC0-2 ([2]; fasted): 5.46 ± 5.23 ng·h/mL | AUC0-2.5 ([2]; fasted): 6.81 ± 6.85 ng·h/mL | AUC0-3 ([2]; fasted): 7.83 ± 8.27 ng·h/mL | AUC0-4 ([2]; fasted): 8.65 ± 8.64 ng·h/mL | AUC0-6 ([2]; fasted): 9.79 ± 7.71 ng·h/mL | AUC0-8 ([2]; fasted): 18.5 ± 34.2 ng·h/mL | AUC0-12 ([2]; fasted): 10.1 ± 8.36 ng·h/mL | AUC0-16 ([2]; fasted): 7.23 ± 4.28 ng·h/mL | AUC0-24 ([2]; fasted): 6.09 ± 2.70 ng·h/mL | AUC0-36 ([2]; fasted): 4.39 ± 2.45 ng·h/mL | AUC0-48 ([2]; fasted): 3.00 ± 1.91 ng·h/mL | AUC0-72 ([2]; fasted): 1.65 ± 1.38 ng·h/mL | AUC0-96 ([2]; fasted): 1.04 ± 1.11 ng·h/mL | AUC0-120 ([2]; fasted): 0.511 ± 0.799 ng·h/mL | AUC0 ([2]; fed): 0.131 ± 0.537 ng·h/mL | AUC0-0.25 ([2]; fed): 0.221 ± 0.676 ng·h/mL | AUC0-0.5 ([2]; fed): 0.980 ± 1.29 ng·h/mL | AUC0-0.75 ([2]; fed): 2.87 ± 4.21 ng·h/mL | AUC0-1 ([2]; fed): 7.33 ± 11.7 ng·h/mL | AUC0-1.5 ([2]; fed): 47.5 ± 78.5 ng·h/mL | AUC0-2 ([2]; fed): 104 ± 150 ng·h/mL | AUC0-2.5 ([2]; fed): 158 ± 202 ng·h/mL | AUC0-3 ([2]; fed): 197 ± 235 ng·h/mL | AUC0-4 ([2]; fed): 289 ± 290 ng·h/mL | AUC0-6 ([2]; fed): 346 ± 188 ng·h/mL | AUC0-8 ([2]; fed): 284 ± 128 ng·h/mL | AUC0-12 ([2]; fed): 187 ± 121 ng·h/mL | AUC0-16 ([2]; fed): 85.7 ± 36.9 ng·h/mL | AUC0-24 ([2]; fed): 47.5 ± 23.0 ng·h/mL | AUC0-36 ([2]; fed): 26.7 ± 13.1 ng·h/mL | AUC0-48 ([2]; fed): 16.9 ± 7.73 ng·h/mL | AUC0-72 ([2]; fed): 7.36 ± 3.10 ng·h/mL | AUC0-96 ([2]; fed): 4.03 ± 1.94 ng·h/mL | AUC0-120 ([2]; fed): 2.41 ± 1.26 ng·h/mL | AUC(0-inf) ([2]; fasted): 425.3 ng·h/mL | AUC(0-t) ([2]; fasted): 414.7 ng·h/mL | AUCextrap ([2]; fasted): 2.77% | Clast ([2]; fasted): 0.561 ng/mL | Cmax ([2]; fasted): 22.8 ng/mL | Tlast ([2]; fasted): 114.47 h | t1/2 ([2]; fasted): 21.36 h | λz ([2]; fasted): 0.0348 h⁻¹ | Tmax ([2]; fasted): 8.00 (2.50, 24.00) h | AUC(0-inf) ([2]; fed): 4902 ng·h/mL | AUC(0-t) ([2]; fed): 4811 ng·h/mL | AUCextrap ([2]; fed): 1.93% | Clast ([2]; fed): 2.41 ng/mL | Cmax ([2]; fed): 474 ng/mL | Tlast ([2]; fed): 120.00 h | t1/2 ([2]; fed): 24.69 h | λz ([2]; fed): 0.0292 h⁻¹ | Tmax ([2]; fed): 6.00 (3.00, 12.00) h
